Legend:
[1] = system: KHYG-1 (IL-2 2.5 ng/mL); assay: drug sensitivity score (DSS) (DSS units); higher = more sensitive; extreme values may be limits of the assay; conditions: 72 h
[2] = system: KAI3 (IL-2 2.5 ng/mL); assay: as above; conditions: 72 h
[3] = system: normal primary NK cells, pool 1 (3 donors) (IL-2 2.5 ng/mL); assay: as above; conditions: 72 h
[4] = system: NK-YS (IL-2 2.5 ng/mL); assay: as above; conditions: 72 h
[5] = system: NK-92 (IL-2 2.5 ng/mL); assay: as above; conditions: 72 h
[6] = system: DERL-7 (IL-2 2.5 ng/mL); assay: as above; conditions: 72 h
[7] = system: IMC-1 (IL-2 20 ng/mL); assay: as above; conditions: 72 h
[8] = system: YT (IL-2 2.5 ng/mL); assay: as above; conditions: 72 h
[9] = system: normal primary NK cells, pool 2 (3 donors) (IL-2 2.5 ng/mL); assay: as above; conditions: 72 h
[10] = system: normal primary NK cells, pool 3 (3 donors) (IL-2 2.5 ng/mL); assay: as above; conditions: 72 h
[11] = system: SNK-6 (IL-2 2.5 ng/mL); assay: as above; conditions: 72 h
[12] = system: normal primary NK cells, pool 1 (3 donors), resting (IL-2 0 ng/mL); assay: as above; conditions: 72 h
[13] = system: NKL (IL-2 2.5 ng/mL); assay: as above; conditions: 72 h
[14] = system: normal NK cells expanded with K562-aAPC; assay: as above; conditions: 72 h; IL-2 2.5 ng/mL
Procedure: (§1)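 Drug sensitivity and resistance testing on K562-aAPC-expanded normal NK cells: 5 concentrations (10-fold steps over a 10,000-fold range), 72 h at 37 °C, viability by CellTiter-Glo normalised to DMSO and benzethonium chloride controls; DSS from the fitted curve.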

[15] = system: normal NK cells expanded with K562-aAPC; assay: percent inhibition of viability; higher = more inhibition; conditions: 72 h, IL-2 2.5 ng/mL
Procedure: as §1

[16] = system: KHYG-1 (IL-2 2.5 ng/mL); assay: as above; conditions: 72 h
[17] = system: KAI3 (IL-2 2.5 ng/mL); assay: as above; conditions: 72 h
[18] = system: normal primary NK cells, pool 1 (3 donors) (IL-2 2.5 ng/mL); assay: as above; conditions: 72 h
[19] = system: NK-YS (IL-2 2.5 ng/mL); assay: as above; conditions: 72 h
[20] = system: NK-92 (IL-2 2.5 ng/mL); assay: as above; conditions: 72 h
[21] = system: DERL-7 (IL-2 2.5 ng/mL); assay: as above; conditions: 72 h
[22] = system: IMC-1 (IL-2 20 ng/mL); assay: as above; conditions: 72 h
[23] = system: YT (IL-2 2.5 ng/mL); assay: as above; conditions: 72 h
[24] = system: normal primary NK cells, pool 2 (3 donors) (IL-2 2.5 ng/mL); assay: as above; conditions: 72 h
[25] = system: normal primary NK cells, pool 3 (3 donors) (IL-2 2.5 ng/mL); assay: as above; conditions: 72 h
[26] = system: SNK-6 (IL-2 2.5 ng/mL); assay: as above; conditions: 72 h
[27] = system: normal primary NK cells, pool 1 (3 donors), resting (IL-2 0 ng/mL); assay: as above; conditions: 72 h
[28] = system: NKL (IL-2 2.5 ng/mL); assay: as above; conditions: 72 h

CO[C@H](C(=O)[C@@H](O)[C@@H](C)O)[C@@H]1Cc2cc3cc(O[C@H]4C[C@@H](O[C@@H]5C[C@@H](O)[C@H](O)[C@@H](C)O5)[C@H](O)[C@@H](C)O4)c(C)c(O)c3c(O)c2C(=O)[C@H]1O[C@H]1C[C@@H](O[C@@H]2C[C@@H](O)[C@@H](O[C@@H]3C[C@](C)(O)[C@H](O)[C@@H](C)O3)[C@@H](C)O2)[C@H](O)[C@@H](C)O1 [Plicamycin] (max concentration tested 10000 nM)
Conditions | drug sensitivity score
[1] | 28.6
[2] | 25.2
[3] | 22.1
[4] | 31.2
[5] | 19.7
[6] | 28.2
[7] | 13.4
[8] | 30.5
[9] | 12.3
[10] | 12.1
[11] | 34.5
[12] | 20.4
[13] | 29.5
[14] | 7.76

percent inhibition of viability [%]
Conditions | 1 nM | 10 nM | 100 nM | 1000 nM | 10000 nM
[15] | -1.48 | 0.95 | 3.45 | 18.5 | 86.7
[16] | -6.39 | 2.63 | 87.8 | 106 | 110
[17] | -19.1 | -16.3 | 61.1 | 93.9 | 106
[18] | -2.64 | -1.48 | 31 | 97.5 | 98.2
[19] | -4.88 | 6.73 | 97.1 | 106 | 108
[20] | -10.9 | -13.5 | 17.8 | 94.4 | 108
[21] | 0.06 | -2.61 | 86.8 | 101 | 101
[22] | -2.17 | -0.08 | -16.4 | 69.3 | 100
[23] | -0.6 | 0.99 | 99 | 109 | 110
[24] | -13 | -9.37 | 5.25 | 58.7 | 91.9
[25] | -7.87 | -12.9 | 5.62 | 56.1 | 95.4
[26] | 6.54 | 44 | 92.3 | 98.5 | 97.8
[27] | -24.1 | -3.24 | 28.7 | 88.3 | 89.5
[28] | -8.9 | -9.19 | 97.5 | 108 | 110

Cc1ccc(C(=O)Nc2ccc(CN3CCN(C)CC3)c(C(F)(F)F)c2)cc1C#Cc1cnc2cccnn12 [Ponatinib] (max concentration tested 1000 nM)
Conditions | drug sensitivity score
[1] | 4.12
[2] | 6.4
[3] | 5.73
[4] | 2.89
[5] | 2.11
[6] | 6.96
[7] | 0
[8] | 7.33
[9] | 3.94
[10] | 2.66
[11] | 0
[12] | 8.02
[13] | 8.25
[14] | 3.2

percent inhibition of viability [%]
Conditions | 0.1 nM | 1 nM | 10 nM | 100 nM | 1000 nM
[15] | -4.16 | -2.02 | 24.4 | -11.2 | 70.4
[16] | -7.12 | -3.44 | -4.86 | 3.85 | 65.1
[17] | -7.8 | -3.54 | 0.07 | 10.6 | 83.4
[18] | 2.63 | 6.68 | 12.1 | 7.51 | 81.5
[19] | -8.44 | -4.74 | -4.88 | 8.88 | 33.5
[20] | -13.8 | -10.1 | -23.1 | -19.9 | 55
[21] | 6.88 | 2.27 | -1.37 | 18.4 | 74.2
[22] | -6.8 | -0.24 | -8.73 | -1.9 | -20.2
[23] | -6.26 | -2.49 | 1.52 | 27 | 68.5
[24] | 2.87 | -1.56 | 1.5 | -2.42 | 75
[25] | -2.51 | 2.42 | 9.55 | -20 | 65
[26] | 11.2 | 4.03 | -7.68 | -18.6 | -2.96
[27] | 1.74 | 25.3 | 15.3 | 19.4 | 60
[28] | -13.5 | -11.6 | 1.83 | 36.3 | 70.1

C[C@]12C=CC(=O)C=C1CC[C@@H]1[C@@H]2[C@@H](O)C[C@@]2(C)[C@H]1CC[C@]2(O)C(=O)CO [Prednisolone] (max concentration tested 10000 nM)
Conditions | drug sensitivity score
[1] | 6.17
[2] | 0
[3] | 15.3
[4] | 0
[5] | 0
[6] | 26.2
[7] | 0
[8] | 3.72
[9] | 13.2
[10] | 8.07
[11] | 4.24
[12] | 23
[13] | 17.5
[14] | 16.2

percent inhibition of viability [%]
Conditions | 1 nM | 10 nM | 100 nM | 1000 nM | 10000 nM
[15] | -2.45 | 5 | 39.2 | 57.3 | 63.9
[16] | -5.42 | -2.27 | 10.1 | 29.8 | 34.5
[17] | -9.17 | -13.6 | -7.78 | -7.77 | -8.06
[18] | 1.14 | 10.2 | 27.4 | 63.4 | 78.3
[19] | -2.75 | -1.1 | -1.97 | -1.53 | 5.33
[20] | -16 | -15.5 | -34.4 | -24.4 | -24.4
[21] | -5.13 | 1.92 | 70 | 98 | 99.5
[22] | -3.99 | -3.97 | -9.73 | -19.4 | -17
[23] | -0.96 | 6.16 | 13.1 | 20.2 | 18.8
[24] | -6.45 | -3.01 | 28.6 | 51.2 | 65
[25] | -9.31 | -4.01 | 13.1 | 36.8 | 47.6
[26] | 5.43 | 22.4 | 7.45 | 10.2 | 35.9
[27] | 4.52 | 3.57 | 56.8 | 80.2 | 89.9
[28] | 3.58 | 12 | 48.8 | 51.4 | 55.3

Cn1c(Nc2ccc(C(F)(F)F)cc2)nc2cc(Oc3ccnc(-c4ncc(C(F)(F)F)[nH]4)c3)ccc21 [RAF265] (max concentration tested 1000 nM)
Conditions | drug sensitivity score
[1] | 3.28
[2] | 5.82
[3] | 2.83
[4] | 0.99
[5] | 5.13
[6] | 5.33
[7] | 0.01
[8] | 0.52
[9] | 0.47
[10] | 0
[11] | 1.66
[12] | 10.2
[13] | 2.71
[14] | 2.97

percent inhibition of viability [%]
Conditions | 0.1 nM | 1 nM | 10 nM | 100 nM | 1000 nM
[15] | -1.93 | -2.9 | -2.68 | 12.1 | 30.9
[16] | -7.83 | -6.28 | -1.05 | 11.5 | 34.9
[17] | -0.58 | 3.63 | 9.74 | 26.2 | 47.5
[18] | -7.64 | 17.4 | 8.25 | 15.4 | 23
[19] | -5.8 | -6.28 | -1.83 | 4.39 | 18.3
[20] | -17.8 | -16.1 | -9.27 | 11.7 | 59.3
[21] | -3.61 | 1.74 | -1.22 | 22.4 | 46.9
[22] | -5.99 | -2.17 | -3.34 | -3.31 | 12
[23] | -4.07 | -2.24 | 1.77 | 6.57 | 15.5
[24] | -11 | 7.1 | -0.02 | -1.76 | 19.7
[25] | -13 | 11.3 | 6.16 | -1.81 | 8.78
[26] | 6.03 | 2.76 | 3.1 | -14.9 | 44.9
[27] | -7.48 | 14.2 | 11.3 | 45.5 | 69.8
[28] | 2.6 | 2.04 | 1.53 | 9.44 | 31.3

— the supplement of paper PMC5908809
